Patent US20240376097A1, “BCL-2 Inhibitor” (BeiGene Ltd., priority 2020, published 2024)
pIC50: −log10 of the molar value. Where two headings read alike, the source gives them in different places.

How the values were obtained:
[1] = target: recombinant human Bcl-2 D103Y protein (Homo sapiens (Human), UniProt P10415, D103Y); assay: Bcl-2-D103Y Biochemical Assay (TR-FRET); format: binding; conditions: for pIC50: TR-FRET, FITC labeled Bak peptide; for Ratio of Bcl-2 D103Y/Bcl-2 WT: ratio of IC50
Method in brief: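 Recombinant human Bcl-2 D103Y binding to its ligand measured by TR-FRET (ex 337 nm, em 490/520 nm) with increasing compound concentrations. Percent inhibition from the 490/520 nm ratio; IC50 from four-parameter logistic fit.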

[2] = test system: RS4;11 (BCL-2 dependent acute lymphoblastic leukemia cell line); assay: RS4;11 Cell Proliferation Assay; format: cell-based; conditions: Homo sapiens, RS4;11 cells, read-out: Cellular proliferation assay (IC50, nM) RS4
Method in brief: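 RS4;11 cells, 50,000 per well in RPMI-1640 with 10% FBS, treated 48 h at 37 °C with a 10-point dilution series topping at 1 μM. Viability read by CellTiter-Glo ATP luminescence; mean IC50 reported.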

[3] = target: Recombinant human Bcl-2 protein (Homo sapiens (Human), UniProt P10415); assay: Bcl-2 TR-FRET Assay; format: binding
Method in brief: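 0.05 nM recombinant Bcl-2 preincubated 0.5 h at room temperature with 10-point compound dilutions (top final 1, 0.1, 0.02 or 0.01 uM) in pH 7.5 phosphate buffer. FITC-Bak peptide (0.5 nM) and anti-6His Tb cryptate then added for 1 h. TR-FRET read; IC50 from four-parameter logistic fit.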

[4] = Bcl-2 wild type, TR-FRET, read-out: Biochemical assay (IC50, nM) Bcl-2 WT
[5] = wild type Bcl-2, unit inferred, read-out: Bcl-2 WT

Chain of Recombinant human Bcl-2 protein (P10415 whole entry): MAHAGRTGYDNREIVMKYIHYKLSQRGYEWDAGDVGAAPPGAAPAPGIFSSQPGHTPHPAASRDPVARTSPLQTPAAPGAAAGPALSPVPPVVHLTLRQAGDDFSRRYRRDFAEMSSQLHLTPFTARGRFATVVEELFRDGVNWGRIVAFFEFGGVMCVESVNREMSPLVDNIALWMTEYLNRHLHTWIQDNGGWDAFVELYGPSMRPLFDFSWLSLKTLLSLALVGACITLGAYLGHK
Chain of recombinant human Bcl-2 D103Y protein (P10415 whole entry D103Y): as the sequence (P10415 whole entry) above, with D103Y counted along it

Row | SMILES | pIC50 [1] | Ratio of Bcl-2 D103Y/Bcl-2 WT [1] | IC50 [2] [nM] | IC50 [3, 4] [nM] | IC50 [3, 5] [nM] | ratio of Bcl-2 D103Y/Bcl-2 wt, compared with F91b in WO2019210828 ([1]; comparison in words)
1 | CC(C)c1ccccc1C1CN(Cc2ccc(F)cc2)CCN1C1CC2(CCN(c3ccc(C(=O)NS(=O)(=O)c4ccc(NC[C@H]5CC[C@](C)(O)CC5)c([N+](=O)[O-])c4)c(Oc4cnc5[nH]ccc5c4)c3)CC2)C1 (stereo partly drawn) [Example 28, 2-((1H-pyrrolo[2,3-b]pyridin-5-yl)oxy)-4-(2-(4-(4-fluorobenzyl)-2-(2-isopropylphenyl)piperazin-1-yl)-7-azaspiro[3.5]nonan-7-yl)-N-((4-((((1r,4r)-4-hydroxy-4-methylcyclohexyl)methyl)amino)-3-nitrophenyl)sulfonyl)benzamide] | 9.47 | 1.5 | 0.39 | 0.23 | 0.23 | –
2 | CC(C)c1ccccc1C1CN(Cc2ccc(Cl)cc2)CCN1C1CC2(CCN(c3ccc(C(=O)NS(=O)(=O)c4ccc(NC[C@H]5CC[C@](C)(O)CC5)c([N+](=O)[O-])c4)c(Oc4cnc5[nH]ccc5c4)c3)CC2)C1 (stereo partly drawn) [Example 29, 2-((1H-pyrrolo[2,3-b]pyridin-5-yl)oxy)-4-(2-(4-(4-chlorobenzyl)-2-(2-isopropylphenyl)piperazin-1-yl)-7-azaspiro[3.5]nonan-7-yl)-N-((4-((((1r,4r)-4-hydroxy-4-methylcyclohexyl)methyl)amino)-3-nitrophenyl)sulfonyl)benzamide] | 9.24 | 1.9 | 0.43 | 0.29 | 0.29 | –
3 | CC(C)c1ccccc1C1CN(Cc2ccc(C(F)(F)F)cc2)CCN1C1CC2(CCN(c3ccc(C(=O)NS(=O)(=O)c4ccc(NC[C@H]5CC[C@](C)(O)CC5)c([N+](=O)[O-])c4)c(Oc4cnc5[nH]ccc5c4)c3)CC2)C1 (stereo partly drawn) [Example 41, 2-((1H-pyrrolo[2,3-b]pyridin-5-yl)oxy)-N-((4-((((1r,4r)-4-hydroxy-4-methylcyclohexyl)methyl)amino)-3-nitrophenyl)sulfonyl)-4-(2-(2-(2-isopropylphenyl)-4-(4-(trifluoromethyl)benzyl)piperazin-1-yl)-7-azaspiro[3.5]nonan-7-yl) benzamide] | 8.51 | 3.7 | 0.74 | 0.83 | 0.83 | –
4 | CC(C)c1ccccc1C1CN(Cc2cccc(F)c2)CCN1C1CC2(CCN(c3ccc(C(=O)NS(=O)(=O)c4ccc(NC[C@H]5CC[C@](C)(O)CC5)c([N+](=O)[O-])c4)c(Oc4cnc5[nH]ccc5c4)c3)CC2)C1 (stereo partly drawn) [Example 43, 2-((1H-pyrrolo[2,3-b]pyridin-5-yl)oxy)-4-(2-(4-(3-fluorobenzyl)-2-(2-isopropylphenyl)piperazin-1-yl)-7-azaspiro[3.5]nonan-7-yl)-N-((4-((((1r,4r)-4-hydroxy-4-methylcyclohexyl)methyl)amino)-3-nitrophenyl)sulfonyl)benzamide] | 9.08 | 2.7 | 0.48 | 0.31 | 0.31 | –
5 | CC(C)c1ccccc1C1CN(Cc2ccccc2F)CCN1C1CC2(CCN(c3ccc(C(=O)NS(=O)(=O)c4ccc(NC[C@H]5CC[C@](C)(O)CC5)c([N+](=O)[O-])c4)c(Oc4cnc5[nH]ccc5c4)c3)CC2)C1 (stereo partly drawn) [Example 46, 2-((1H-pyrrolo[2,3-b]pyridin-5-yl)oxy)-4-(2-(4-(2-fluorobenzyl)-2-(2-isopropylphenyl)piperazin-1-yl)-7-azaspiro[3.5]nonan-7-yl)-N-((4-((((1r,4r)-4-hydroxy-4-methylcyclohexyl)methyl)amino)-3-nitrophenyl)sulfonyl)benzamide] | 8.74 | 5.1 | 0.91 | 0.34 | 0.34 | –
6 | COc1ccc(CN2CCN(C3CC4(CCN(c5ccc(C(=O)NS(=O)(=O)c6ccc(NC[C@H]7CC[C@](C)(O)CC7)c([N+](=O)[O-])c6)c(Oc6cnc7[nH]ccc7c6)c5)CC4)C3)C(c3ccccc3C(C)C)C2)c(OC)c1 (stereo partly drawn) [Example 48] | 9.70 | 2.8 | 0.43 | 0.072 | 0.072 | –
7 | CC(C)c1ccccc1C1CN(Cc2cc(F)cc(F)c2)CCN1C1CC2(CCN(c3ccc(C(=O)NS(=O)(=O)c4ccc(NC[C@H]5CC[C@](C)(O)CC5)c([N+](=O)[O-])c4)c(Oc4cnc5[nH]ccc5c4)c3)CC2)C1 (stereo partly drawn) [Example 51, 2-((1H-pyrrolo[2,3-b]pyridin-5-yl)oxy)-4-(2-(4-(3,5-difluorobenzyl)-2-(2-isopropylphenyl)piperazin-1-yl)-7-azaspiro[3.5]nonan-7-yl)-N-((4-((((1r,4r)-4-hydroxy-4-methylcyclohexyl)methyl)amino)-3-nitrophenyl)sulfonyl)benzamide] | 8.82 | 3.5 | 0.49 | 0.42 | 0.42 | –
8 | CC(C)c1ccccc1C1CN(Cc2ccc(F)c(F)c2)CCN1C1CC2(CCN(c3ccc(C(=O)NS(=O)(=O)c4ccc(NC[C@H]5CC[C@](C)(O)CC5)c([N+](=O)[O-])c4)c(Oc4cnc5[nH]ccc5c4)c3)CC2)C1 (stereo partly drawn) [Example 52, 2-((1H-pyrrolo[2,3-b]pyridin-5-yl)oxy)-4-(2-(4-(3,4-difluorobenzyl)-2-(2-isopropylphenyl)piperazin-1-yl)-7-azaspiro[3.5]nonan-7-yl)-N-((4-((((1r,4r)-4-hydroxy-4-methylcyclohexyl)methyl)amino)-3-nitrophenyl)sulfonyl)benzamide] | 9.21 | 2.5 | 0.36 | 0.24 | 0.24 | –
9 | COc1ccc(CN2CCN(C3CC4(CCN(c5ccc(C(=O)NS(=O)(=O)c6ccc(NC[C@H]7CC[C@](C)(O)CC7)c([N+](=O)[O-])c6)c(Oc6cnc7[nH]ccc7c6)c5)CC4)C3)C(c3ccccc3C(C)C)C2)cn1 (stereo partly drawn) [Example 72, 2-((1H-pyrrolo[2,3-b]pyridin-5-yl)oxy)-N-((4-((((1r,4r)-4-hydroxy-4-methylcyclohexyl)methyl)amino)-3-nitrophenyl)sulfonyl)-4-(2-(2-(2-isopropylphenyl)-4-((6-methoxypyridin-3-yl)methyl)piperazin-1-yl)-7-azaspiro[3.5]nonan-7-yl)benzamide] | 10.10 | 1.6 | 0.45 | 0.05 | 0.05 | significantly lower
10 | CC(C)c1ccccc1[C@@H]1CN(Cc2cccc3c2OCCO3)CCN1C1CC2(CCN(c3ccc(C(=O)NS(=O)(=O)c4ccc(NC[C@H]5CC[C@](C)(O)CC5)c([N+](=O)[O-])c4)c(Oc4cnc5[nH]ccc5c4)c3)CC2)C1 [Example 79a, 2-((1H-pyrrolo[2,3-b]pyridin-5-yl)oxy)-4-(2-(R-4-((2,3-dihydrobenzo [b][1,4]dioxin-5-yl)methyl)-2-(2-isopropylphenyl)piperazin-1-yl)-7-azaspiro[3.5]nonan-7-yl)-N-((4-((((1r,4r)-4-hydroxy-4-methylcyclohexyl)methyl)amino)-3-nitrophenyl)sulfonyl)benzamide] | 9.70 | 1.9 | 0.104 | 0.11 | 0.11 | –
11 | COc1ccc(CN2CCN(C3CC4(CCN(c5ccc(C(=O)NS(=O)(=O)c6ccc(NC[C@H]7CC[C@](C)(O)CC7)c([N+](=O)[O-])c6)c(Oc6cnc7[nH]ccc7c6)c5)CC4)C3)[C@H](c3ccccc3C(C)C)C2)cc1OC [Example 81a, 2-((1H-pyrrolo[2,3-b]pyridin-5-yl)oxy)-4-(2-((R)-4-(3,4-dimethoxybenzyl)-2-(2-isopropylphenyl)piperazin-1-yl)-7-azaspiro[3.5]nonan-7-yl)-N-((4-((((1r,4r)-4-hydroxy-4-methylcyclohexyl)methyl)amino)-3-nitrophenyl)sulfonyl)benzamide] | – | – | 0.146 | 0.038 | – | –
12 | COc1cc(CN2CCN(C3CC4(C3)CN(c3ccc(C(=O)NS(=O)(=O)c5ccc(NC[C@H]6CC[C@](C)(O)CC6)c([N+](=O)[O-])c5)c(Oc5cnc6[nH]cc(F)c6c5)c3)C4)[C@H](c3ccccc3C(C)C)C2)cc(F)c1OC [Example 230, 2-((3-fluoro-1H-pyrrolo[2,3-b]pyridin-5-yl)oxy)-4-(6-((R)-4-(3-fluoro-4,5-dimethoxybenzyl)-2-(2-isopropylphenyl)piperazin-1-yl)-2-azaspiro[3.3]heptan-2-yl)-N-((4-((((1r,4r)-4-hydroxy-4-methylcyclohexyl)methyl)amino)-3-nitrophenyl)sulfonyl)benzamide] | – | – | 0.1 | 0.19 | – | –
13 | COc1cc(CN2CCN(C3CC4(CCN(c5ccc(C(=O)NS(=O)(=O)c6ccc(NC[C@H]7CC[C@](C)(O)CC7)c([N+](=O)[O-])c6)c(Oc6cnc7[nH]ccc7c6)c5)CC4)C3)[C@H](c3ccccc3C(C)C)C2)ccc1C1CC1 [Example 257] | – | – | 0.15 | 0.4 | – | –
